Measurements from patent publication US8494269B2, “Method and system for screening of a to-be-analyzed candidate as a skin-whitening agent” (National Sun Yat-Sen University, priority 2009, dated 2013).

Key:
zebrafish larvae [1] = experiment: Zebrafish larvae skin-whitening screen, number of valid pixels by Image Scion; assay type: in vivo, zebrafish (Danio Rerio); details: for mean of the number of "valid pixels" versus concentration of the administered candidate: FIGS. 11, 12 and 13, 48 h exposure, Image Scion; for concentration giving statistically significant reduction of "valid pixels" in the images of the zebrafish vs control group: embryos exposed 48 h in Hank's buffer/DMSO, p<0.05, ANOVA followed by Duncan's method, Image Scion index 150-254; for conclusion of the screening as skin-whitening agent: second feature parameter smaller than the first with p<0.05
Description: The preparation of the zebrafish embryos was similar to, but with small modifications from, that disclosed in M. Westerfield (2007), The Zebrafish Book: A Guide for the Laboratory Use of Zebrafish (Danio Rerio), 5th edit. University of Oregon Press, Eugene, Oreg. First, one female fish and two male fish were put in a breeding tank having an acrylic grid under a water temperature of 28.5 degrees Celsius. Then, the breeding tank was made to undergo a first light-dark cycle of 14 hours of light and 10 hours of darkness. Subsequently, during the second light-dark cycle, the female fish and the male fish would respectively produce eggs and sperms for fertilization so as to obtain fertilized eggs. These fertilized eggs are referred to as fertilized eggs from “the same parental generation”. Next, after an hour, the fertilized eggs were removed from the breeding tank with a dropper, and were disposed in a Petri dish containing the Hank's buffer prepared according to the above-disclosed formula. Later, the Petri dish was disposed in an incubator (RI-80, FIRSTEK, Taiwan) under a controlled temperature of 28.5 degrees Celsius, and a controlled light-dark cycle of 14 hours of light and 10 hours of darkness for a 9-hour breeding process to allow development of the fertilized eggs into embryos. Subsequently, a Leica Z16 APO stereomicroscope (Leica, Heerbrugg, Switzerland) was used for the observation of the development of various embryos. Based on the observations, only well-developed embryos were kept for use in the experiments that followed.
First, arbutin (Sigma, Cat. No. A4256), N-phenylthiourea (Sigma, Cat. No. P7629) and kojic acid (Sigma, Cat. No. K3125) were respectively dissolved in a 2% dimethyl sulfoxide (DMSO) solution prepared from Hank's buffer to result in arbutin solutions with concentrations of 0.1 mM, 0.2 mM, 1 mM, 2 mM, 10 mM and 20 mM, N-phenylthiourea solutions with concentrations of 0.002 mM, 0.02 mM, 0.2 mM, 0.4 mM, 1 mM and 2 mM, and kojic acid solutions with concentrations of 0.2 mM, 1 mM, 2 mM, 20 mM, 40 mM and 100 mM, respectively. Next, each well of a 96-well plate is provided with 100 μL of Hank's buffer. Subsequently, in accordance with the operational conditions set forth below in Table 4, the zebrafish prepared in the way previously described under subsection 2 of section A (Materials used during experimentation) were added respectively to the wells, to which 100 μL of the to-be-analyzed candidates, i.e., arbutin, N-phenylthiourea and kojic acid solutions of various concentrations, were added so as to result in the final concentrations as shown in Table 4. The 96-well plate was then disposed in an incubator under a controlled temperature of 28.5 degrees Celsius, and a controlled light-dark cycle of 14 hours of light and 10 hours of darkness for a 48-hour breeding period to allow the embryos to develop into zebrafish larvae. It should be noted herein that the above procedure was for preparation of a plurality of the “second groups of zebrafish” (i.e., test groups (A2˜A7, N2˜N7, K2˜K7)), while each of the “first groups of zebrafish” (each for a kind of the to-be-tested candidate) were prepared using the same breeding process without the administration of the to-be-analyzed candidates so as to form control groups (A1, N1, K1).
A tricaine methanesulfonate solution (MS-222) with a concentration of 168 ppm was used to anesthetize the zebrafish larvae prepared in Procedure A. Next, a depression slide (Micro Scientific Laboratories, Inc., U.S.A., Cat. No. MM-104SC) containing 1% methyl cellulose (Sigma, Cat. No. M0512) was used to mount the zebrafish. Subsequently, Leica Z16 APO stereomicroscope was used to acquire images of the zebrafish with a 25× magnification rate and a 3.372 ms exposure time.
Image Scion was used to determine the mean of the number of “valid pixels” (i.e., pixels whose grayscale levels fall within a predefined range) in the images corresponding to the zebrafish of the same group. […]

zebrafish larvae [2] = experiment: Zebrafish larvae skin-whitening screen, number of valid pixels by ImageJ version 1.40 g; assay type: in vivo, zebrafish (Danio Rerio); details: groups A1-A7, FIG. 14 vs FIG. 11; ImageJ threshold 0-85
Description: • (2) ImageJ version 1.40 g (ImageJ, National Institute of Health, Bethesda, Md., U.S.A.) with operation parameters set in Table 3 below for defining the predefined range for a pixel to be considered a “valid pixel”.
First, arbutin (Sigma, Cat. No. A4256), N-phenylthiourea (Sigma, Cat. No. P7629) and kojic acid (Sigma, Cat. No. K3125) were respectively dissolved in a 2% dimethyl sulfoxide (DMSO) solution prepared from Hank's buffer to result in arbutin solutions with concentrations of 0.1 mM, 0.2 mM, 1 mM, 2 mM, 10 mM and 20 mM, N-phenylthiourea solutions with concentrations of 0.002 mM, 0.02 mM, 0.2 mM, 0.4 mM, 1 mM and 2 mM, and kojic acid solutions with concentrations of 0.2 mM, 1 mM, 2 mM, 20 mM, 40 mM and 100 mM, respectively. Next, each well of a 96-well plate is provided with 100 μL of Hank's buffer. Subsequently, in accordance with the operational conditions set forth below in Table 4, the zebrafish prepared in the way previously described under subsection 2 of section A (Materials used during experimentation) were added respectively to the wells, to which 100 μL of the to-be-analyzed candidates, i.e., arbutin, N-phenylthiourea and kojic acid solutions of various concentrations, were added so as to result in the final concentrations as shown in Table 4. […]

Row | SMILES | mean of the number of "valid pixels" versus concentration of the administered candidate (zebrafish larvae [1]) | concentration giving statistically significant reduction of "valid pixels" in the images of the zebrafish vs control group (zebrafish larvae [1]) | conclusion of the screening as skin-whitening agent (zebrafish larvae [1]) | comparison of results obtained using ImageJ version 1.40 g with those using Image Scion (zebrafish larvae [2])
1 | NC(=S)Nc1ccccc1 [N-phenylthiourea] | decreases with the concentration | at least 0.01 mM | suitable as skin-whitening agents | 
2 | OC[C@H]1O[C@@H](Oc2ccc(O)cc2)[C@H](O)[C@@H](O)[C@@H]1O [arbutin] | decreases with the concentration | at least 0.05 mM | suitable as skin-whitening agents | no significant difference
3 | O=c1cc(CO)occ1O [kojic acid] | decreases with the concentration | at least 10 mM | suitable as skin-whitening agents | 
